IC50 data for twelve molecules are collected here from patent US20170291905A1, “ARGININE […] INHIBITORS AND USES THEREOF” (Epizyme, Inc., priority 2014, published 2017).

In the assay the target is full-length human PRMT8 isoform 1 (Homo sapiens, UniProt Q9NR22). Description: PRMT8 biochemical assay (3H-SAM Flashplate, histone H4 31-45 peptide). The following applies: 1.5 nM PRMT8, 30 min preincubation, 150 nM peptide. In a few lines: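 Purified untagged full-length PRMT8 (1.5 nM) preincubated with compound 30 min at room temperature in 20 mM Bicine pH 7.6, then reacted with 150 nM biotinylated H4 peptide, 50 nM 3H-SAM plus 550 nM SAM, 2% DMSO. Stopped with 400 uM cold SAM; peptide captured on streptavidin Flashplate, counted; % inhibition vs DMSO/SAH controls fitted for IC50.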
Chain of full-length human PRMT8 isoform 1 (Q9NR22 whole entry, canonical isoform): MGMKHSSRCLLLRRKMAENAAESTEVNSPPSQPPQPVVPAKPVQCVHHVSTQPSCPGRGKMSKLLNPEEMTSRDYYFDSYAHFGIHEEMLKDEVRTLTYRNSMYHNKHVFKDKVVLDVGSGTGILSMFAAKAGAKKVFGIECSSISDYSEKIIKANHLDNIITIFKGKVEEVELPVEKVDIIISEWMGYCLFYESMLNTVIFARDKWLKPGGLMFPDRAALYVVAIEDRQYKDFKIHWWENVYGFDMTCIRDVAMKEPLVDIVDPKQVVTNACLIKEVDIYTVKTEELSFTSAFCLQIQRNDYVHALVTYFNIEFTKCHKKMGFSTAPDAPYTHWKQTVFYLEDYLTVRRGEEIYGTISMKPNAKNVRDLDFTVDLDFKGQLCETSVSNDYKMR
The molecule `CC[C@H]1CC[C@@H](c2n[nH]cc2CN(C)CCNC)CC1` [compound 1] came in with an IC50 of 11.1 nM.
Then `CCOCCOCC1(COCCOCC)CCC(c2n[nH]cc2CN(C)CCNC)CC1` [compound 39, N1-((3-(4,4-bis((2-ethoxyethoxy)methyl)cyclohexyl)-1H-pyrazol-4-yl)methyl)-N1,N2-dimethylethane-1,2-diamine], with 139 nM; and `CNCCN(C)Cc1c[nH]nc1C1CCC(COCCC2CCOCC2)(COCCC2CCOCC2)CC1` [compound 40], with 45.5 nM; and `CNCCN(C)Cc1c[nH]nc1C1CCC(COCC2CC2)(COCC2CC2)CC1` [compound 41, N1-((3-(4,4-bis((cyclopropylmethoxy)methyl)cyclohexyl)-1H-pyrazol-4-yl)methyl)-N1,N2-dimethylethane-1,2-diamine], with 9.27 nM.
The value for `CN(C)CCN(C)Cc1c[nH]nc1[C@H]1CC[C@@]2(CC1)CC(C)(C)CO2` [compound 42, N1-((3-((5S,8S)-3,3-dimethyl-1-oxaspiro[4.5]decan-8-yl)-1H-pyrazol-4-yl)methyl)-N1,N2,N2-trimethylethane-1,2-diamine] was 33.8 nM; that for `CN(C)CCN(C)Cc1c[nH]nc1[C@H]1CC[C@]2(CC1)CC(C)(C)CO2` [compound 43, N1-((3-((5r,8r)-3,3-dimethyl-1-oxaspiro[4.5]decan-8-yl)-1H-pyrazol-4-yl)methyl)-N1,N2,N2-trimethylethane-1,2-diamine] was 97.2 nM; that for `CNCCN(C)Cc1c[nH]nc1C1CCC(CO)(CO)CC1` [compound 44, (4-(4-((methyl(2-(methylamino)ethyl)amino)methyl)-1H-pyrazol-3-yl)cyclohexane-1,1-diyl)dimethanol] was 34.4 nM.
The value for `CNCCN(C)Cc1c[nH]nc1C1CCC(COC)(COCC2CCOCC2)CC1` (stereo not drawn) [compound 45] was 11.2 nM.
The molecule `CNCCN(C)Cc1c[nH]nc1C1=CCC2(CC1)CC(C)(C)CO2` (stereo not drawn) [compound 46, N1-((3-(3,3-dimethyl-1-oxaspiro[4.5]dec-7-en-8-yl)-1H-pyrazol-4-yl)methyl)-N1,N2-dimethylethane-1,2-diamine] returned an IC50 of 24.6 nM. Compared with the last molecule, the IC50 is about 2.2-fold higher.
`CCC1(CC)C[C@]2(CC[C@H](c3n[nH]cc3CN(C)CCNC)CC2)NC1=O` [compound 47, (5s,8s)-3,3-diethyl-8-(4-((methyl(2-(methylamino)ethyl)amino)methyl)-1H-pyrazol-3-yl)-1-azaspiro[4.5]decan-2-one]: inhibition was half-maximal at 14.9 nM (IC50).
The value for `CCC1(CC)C[C@]2(CC[C@@H](c3n[nH]cc3CN(C)CCNC)CC2)NC1=O` [compound 48, (5r,8r)-3,3-diethyl-8-(4-((methyl(2-(methylamino)ethyl)amino)methyl)-1H-pyrazol-3-yl)-1-azaspiro[4.5]decan-2-one] was 70.6 nM; that for `CNCCN(C)Cc1ccnn1[C@H]1CC[C@@]2(CC1)CC(C)(C)CO2` [compound 49, N1-((1-((5s,8s)-3,3-dimethyl-1-oxaspiro[4.5]decan-8-yl)-1H-pyrazol-5-yl)methyl)-N1,N2-dimethylethane-1,2-diamine] was 16.7 nM.
